In test [1] the target is T1, 5-HT2A (Homo sapiens, UniProt P28223). In words: Serotonin 5-HT2A in vitro cellular IPOne agonism assay. To be noted: CHO-K1 cells, 60 min. It is filed as cell-based. Set-up: host or cells: CHO-K1. Here is the method:
Serotonin 5-HT2A In Vitro Cellular IPOne Agonism Assay. The 5-HT2A IPOne HTRF assay was performed at Epics Therapeutics S.A. (Belgium, FAST-0505I) using conventional methods. Briefly, CHO-K1 cells expressing human recombinant 5-HT2A receptor grown to mid-log phase in culture media without antibiotics were detached with PBS-EDTA, centrifuged, and resuspended in medium without antibiotics buffer. 20,000 cells are distributed in a 96 well plate and incubated overnight at 37° C. with 5% CO2.
For agonist testing, the medium was removed and 20 μl of assay buffer plus 20 μl of test compound or reference agonist were added in each well. The plate was incubated for 60 min. at 37° C. with 5% CO2.
After addition of the lysis buffer containing IP1-d2 and anti-IP1 cryptate detection reagents, plates were incubated 1-hour at room temperature, and fluorescence ratios were measured according to the manufacturer specification, with the HTRF kit.

Test [2] has as its target T1, 5-HT2A. In words: Serotonin 5-HT2A in vitro radioligand binding competition assay. More on the design: purchased Epics Therapeutics S.A. (Belgium), contract assay FAST-0505B; host or cells: membrane extracts. To be noted: [3H]-DOI radiotracer, membrane extracts, read-out: 5HT2A R[…] ACTIVITY
Here is the method: Serotonin 5-HT2A In Vitro Radioligand Binding Competition Assay. The 5-HT2A radioligand binding competition assay was performed at Epics Therapeutics S.A. (Belgium, FAST-0505B) using conventional methods. Briefly, competition binding was performed in duplicate in the wells of a 96 well plate (Master Block, Greiner, 786201) containing binding buffer (optimized for each receptor), membrane extracts (amount of protein/well optimized for each receptor), radiotracer [^3H]-DOI (final concentration optimized for each receptor) and test compound. Nonspecific binding was determined by co-incubation with 200-fold excess of cold competitor. The samples were incubated in a final volume of 0.1 ml at a temperature and for a duration optimized for each receptor and then filtered over filter plates. Filters were washed six times with 0.5 ml of ice-cold washing buffer (optimized for each receptor) and 50 μl of Microscint 20 (Packard) were added in each well. The plates were incubated 15 min on an orbital shaker and then counted with a TopCount™ for 1 min/well.

Molecules are shown by their SMILES. Where two headings read alike, the source gives them in different places.

T1 sequence (P28223 whole entry): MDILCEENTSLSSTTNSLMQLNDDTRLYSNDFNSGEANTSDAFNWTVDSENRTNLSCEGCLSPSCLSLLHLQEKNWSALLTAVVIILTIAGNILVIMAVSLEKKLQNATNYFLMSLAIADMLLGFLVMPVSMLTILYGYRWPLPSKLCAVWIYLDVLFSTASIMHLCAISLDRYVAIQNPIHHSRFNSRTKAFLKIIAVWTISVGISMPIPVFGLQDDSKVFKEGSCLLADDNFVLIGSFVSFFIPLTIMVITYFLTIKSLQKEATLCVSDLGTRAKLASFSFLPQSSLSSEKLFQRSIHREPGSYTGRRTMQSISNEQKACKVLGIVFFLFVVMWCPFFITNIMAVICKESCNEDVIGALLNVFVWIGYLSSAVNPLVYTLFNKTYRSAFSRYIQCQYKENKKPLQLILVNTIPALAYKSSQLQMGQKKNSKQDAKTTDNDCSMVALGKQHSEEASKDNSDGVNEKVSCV

For orientation: EC50 means the concentration giving half of the maximal effect. A high value points to lower potency in that assay. The compound `c1ccc(COc2ccc3c4c(sc3c2)CCNCC4)cc1` [Compound 77, 8-(benzyloxy)-2,3,4,5-tetrahydro-1H-benzo[4,5]thieno[2,3-d]azepine] showed an EC50 at 5-HT2A [1] (benzothiophenes) greater than 10 µM. Also, the IC50 on 5-HT2A [2] (benzothiophenes) is 1 to 10 µM.

At 5-HT2A [1] (benzofurans), `CN1CCCc2oc3cc(OCc4ccccc4)ccc3c2C1` [Compound 54, 8-(benzyloxy)-2-methyl-2,3,4,5-tetrahydro-1H-benzofuro[3,2-c]azepine] yielded an EC50 greater than 10 µM. On 5-HT2A [2] (benzofurans), the IC50 lay in the range of 0.101 to 1 µM.

With `COc1ccc2c3c(oc2c1)CCN(C)CC3` [Compound 26, 8-methoxy-3-methyl-2,3,4,5-tetrahydro-1H-benzofuro[2,3-d]azepine], the EC50 at 5-HT2A [1] (benzofurans) was greater than 10 µM. Besides, the IC50 at 5-HT2A [2] (benzofurans) was in the range of 1 to 10 µM.

For the compound `CN1CCCc2oc3ccccc3c2C1` [Compound 21, 2-methyl-2,3,4,5-tetrahydro-1H-benzofuro[3,2-c]azepine], the EC50 at 5-HT2A [1] (benzofurans) was greater than 10 µM. For the same compound, the IC50 at 5-HT2A [2] (benzofurans) is greater than 10 µM.

`CN1CCCc2oc3cccc(F)c3c2C1` [Compound 4, 10-fluoro-2-methyl-2,3,4,5-tetrahydro-1H-benzofuro[3,2-c]azepine] gave an EC50 on 5-HT2A [1] (benzofurans) greater than 10 µM. In addition, the IC50 on 5-HT2A [2] (benzofurans) was 1 to 10 µM.

Take `CN1CCc2oc3cccc(F)c3c2CC1` [Compound 3, 10-fluoro-3-methyl-2,3,4,5-tetrahydro-1H-benzofuro[2,3-d]azepine]: at 5-HT2A [1] (benzofurans), the EC50 is 0.101 to 1 µM. Besides, at 5-HT2A [2] (benzofurans), the IC50 lay in the range of 0.101 to 1 µM.

`COc1ccc2c3c(sc2c1)CCN(C1CCC1)CC3` [Compound 74, 3-cyclobutyl-8-methoxy-2,3,4,5-tetrahydro-1H-benzo[4,5]thieno[2,3-d]azepine] had an EC50 at 5-HT2A [1] (benzothiophenes) greater than 10 µM. Further, the IC50 at 5-HT2A [2] (benzothiophenes) was greater than 10 µM.

The compound `Fc1cccc2oc3c(c12)CNCCC3` [Compound 7, 10-fluoro-2,3,4,5-tetrahydro-1H-benzofuro[3,2-c]azepine] had an EC50 at 5-HT2A [1] (benzofurans) greater than 10 µM. Moreover, at 5-HT2A [2] (benzofurans), the IC50 is greater than 10 µM.

Consider `COc1ccc2c3c(oc2c1)CCCN(C)C3` [Compound 17, 8-methoxy-2-methyl-2,3,4,5-tetrahydro-1H-benzofuro[3,2-c]azepine], for which the EC50 at 5-HT2A [1] (benzofurans) was greater than 10 µM. The IC50 on 5-HT2A [2] (benzofurans) was greater than 10 µM.

On 5-HT2A [1] (benzofurans), `c1ccc2c3c(oc2c1)CCNCC3` [Compound 31, 2,3,4,5-tetrahydro-1H-benzofuro[2,3-d]azepine] gave an EC50 of 0.101 to 1 µM. Also, the IC50 at 5-HT2A [2] (benzofurans) is 0.101 to 1 µM.

Compound `c1ccc(COc2ccc3c4c(sc3c2)CCN(C2CCC2)CC4)cc1` [Compound 78, 8-(benzyloxy)-3-cyclobutyl-2,3,4,5-tetrahydro-1H-benzo[4,5]thieno[2,3-d]azepine] returned a 50% effective concentration (EC50) at 5-HT2A [1] (benzothiophenes) greater than 10 µM. For the same compound, the IC50 on 5-HT2A [2] (benzothiophenes) was in the range of 1 to 10 µM.

At 5-HT2A [1] (benzofurans), `c1ccc(COc2cccc3oc4c(c23)CNCCC4)cc1` [Compound 51, 10-(benzyloxy)-2,3,4,5-tetrahydro-1H-benzofuro[3,2-c]azepine] returned an EC50 greater than 10 µM. Also, the IC50 on 5-HT2A [2] (benzofurans) lay in the range of 1 to 10 µM.

On to `FC(F)(F)c1ccc2c3c(oc2c1)CCNCC3` [Compound 43, 8-(trifluoromethyl)-2,3,4,5-tetrahydro-1H-benzofuro[2,3-d]azepine], for which the EC50 at 5-HT2A [1] (benzofurans) lay in the range of 0.101 to 1 µM. Moreover, the IC50 at 5-HT2A [2] (benzofurans) lay in the range of 1 to 10 µM.

Take `COc1ccc2c3c(sc2c1)CCNCC3` [Compound 35, 8-methoxy-2,3,4,5-tetrahydro-1H-benzo[4,5]thieno[2,3-d]azepine]: the EC50 on 5-HT2A [1] (benzothiophenes) was in the range of 0.101 to 1 µM. At 5-HT2A [2] (benzothiophenes), the IC50 is 1 to 10 µM.

On 5-HT2A [1] (benzofurans), `COc1cccc2oc3c(c12)CNCCC3` [Compound 18, 10-methoxy-2,3,4,5-tetrahydro-1H-benzofuro[3,2-c]azepine] displayed an EC50 of 1 to 10 µM. The IC50 at 5-HT2A [2] (benzofurans) is 1 to 10 µM.

Regarding `FC(F)(F)Oc1ccc2c3c(sc2c1)CCN(C1CCC1)CC3` [Compound 76, 3-cyclobutyl-8-(trifluoromethoxy)-2,3,4,5-tetrahydro-1H-benzo[4,5]thieno[2,3-d]azepine], the EC50 at 5-HT2A [1] (benzothiophenes) was greater than 10 µM. For the same compound, the IC50 at 5-HT2A [2] (benzothiophenes) was 1 to 10 µM.

For the compound `FC(F)(F)CN1CCc2sc3ccccc3c2CC1` [Compound 69, 3-(2,2,2-trifluoroethyl)-2,3,4,5-tetrahydro-1H-benzo[4,5]thieno[2,3-d]azepine], on 5-HT2A [1] (benzothiophenes), the concentration giving a half-maximal response (EC50) was greater than 10 µM. Further, at 5-HT2A [2] (benzothiophenes), the IC50 is greater than 10 µM.

Regarding `Fc1ccc2c3c(sc2c1)CCNCC3` [Compound 46, 8-fluoro-2,3,4,5-tetrahydro-1H-benzo[4,5]thieno[2,3-d]azepine], the EC50 at 5-HT2A [1] (benzothiophenes) is less than 0.01 µM. Moreover, the IC50 at 5-HT2A [2] (benzothiophenes) was in the range of 0.01 to 0.1 µM.

Regarding `FC(F)(F)Oc1ccc2c3c(oc2c1)CCCNC3` [Compound 49, 8-(trifluoromethoxy)-2,3,4,5-tetrahydro-1H-benzofuro[3,2-c]azepine], the EC50 at 5-HT2A [1] (benzofurans) lay within 1 to 10 µM. The IC50 at 5-HT2A [2] (benzofurans) fell in the range of 1 to 10 µM.

Compound `FC(F)(F)Oc1ccc2c3c(oc2c1)CCNCC3` [Compound 44, 8-(trifluoromethoxy)-2,3,4,5-tetrahydro-1H-benzofuro[2,3-d]azepine] showed an EC50 at 5-HT2A [1] (benzofurans) of 0.101 to 1 µM. Moreover, the IC50 at 5-HT2A [2] (benzofurans) is 1 to 10 µM.

Compound `COc1ccc2c3c(oc2c1)CCCN(C1CCC1)C3` [Compound 12, 2-cyclobutyl-8-methoxy-2,3,4,5-tetrahydro-1H-benzofuro[3,2-c]azepine] had a concentration giving a half-maximal response (EC50) at 5-HT2A [1] (benzofurans) greater than 10 µM. In addition, the IC50 at 5-HT2A [2] (benzofurans) is greater than 10 µM.

Consider `CN1CCCc2oc3cc(OC(F)(F)F)ccc3c2C1` [Compound 53, 2-methyl-8-(trifluoromethoxy)-2,3,4,5-tetrahydro-1H-benzofuro[3,2-c]azepine], for which the EC50 at 5-HT2A [1] (benzofurans) was greater than 10 µM. The IC50 on 5-HT2A [2] (benzofurans) is greater than 10 µM.

For `Oc1ccc2c3c(sc2c1)CCNCC3` [Compound 80, 2,3,4,5-tetrahydro-1H-benzo[4,5]thieno[2,3-d]azepin-8-ol], the EC50 at 5-HT2A [1] (benzothiophenes) was 0.101 to 1 µM. In addition, the IC50 on 5-HT2A [2] (benzothiophenes) lay within 0.01 to 0.1 µM.

`Fc1ccc2c3c(oc2c1)CCCNC3` [Compound 6, 8-fluoro-2,3,4,5-tetrahydro-1H-benzofuro[3,2-c]azepine] yielded an EC50 on 5-HT2A [1] (benzofurans) of 1 to 10 µM. For the same compound, on 5-HT2A [2] (benzofurans), the IC50 was greater than 10 µM.

Take `c1ccc2c3c(oc2c1)CCCNC3` [Compound 22, 2,3,4,5-tetrahydro-1H-benzofuro[3,2-c]azepine]: the 50% effective concentration (EC50) on 5-HT2A [1] (benzofurans) is greater than 10 µM. Further, the IC50 at 5-HT2A [2] (benzofurans) is greater than 10 µM.

Compound `Fc1cccc2oc3c(c12)CCNCC3` [Compound 10, 10-fluoro-2,3,4,5-tetrahydro-1H-benzofuro[2,3-d]azepine] came in with an EC50 at 5-HT2A [1] (benzofurans) of 0.101 to 1 µM. Also, at 5-HT2A [2] (benzofurans), the IC50 fell in the range of 0.101 to 1 µM.

In the case of `COc1ccc2c3c(oc2c1)CCCNC3` [Compound 19, 8-methoxy-2,3,4,5-tetrahydro-1H-benzofuro[3,2-c]azepine], the EC50 on 5-HT2A [1] (benzofurans) was greater than 10 µM. Further, the IC50 at 5-HT2A [2] (benzofurans) is greater than 10 µM.

With `FC(F)(F)c1ccc2c3c(oc2c1)CCCNC3` [Compound 48, 8-(trifluoromethyl)-2,3,4,5-tetrahydro-1H-benzofuro[3,2-c]azepine], on 5-HT2A [1] (benzofurans), the EC50 fell in the range of 1 to 10 µM. Besides, the IC50 on 5-HT2A [2] (benzofurans) was 1 to 10 µM.

`CN1CCc2sc3cc(OCc4ccccc4)ccc3c2CC1` [Compound 79, 8-(benzyloxy)-3-methyl-2,3,4,5-tetrahydro-1H-benzo[4,5]thieno[2,3-d]azepine] returned an EC50 on 5-HT2A [1] (benzothiophenes) greater than 10 µM. For the same compound, the IC50 on 5-HT2A [2] (benzothiophenes) was 0.101 to 1 µM.

On to `Fc1cccc2oc3c(c12)CCN(CC(F)(F)F)CC3` [Compound 8, 10-fluoro-3-(2,2,2-trifluoroethyl)-2,3,4,5-tetrahydro-1H-benzofuro[2,3-d]azepine], for which the EC50 at 5-HT2A [1] (benzofurans) fell in the range of 1 to 10 µM. On 5-HT2A [2] (benzofurans), the IC50 was greater than 10 µM.

As to `COc1cccc2oc3c(c12)CCN(C1CCC1)CC3` [Compound 15, 3-cyclobutyl-10-methoxy-2,3,4,5-tetrahydro-1H-benzofuro[2,3-d]azepine], the EC50 on 5-HT2A [1] (benzofurans) is 1 to 10 µM. For the same compound, the IC50 on 5-HT2A [2] (benzofurans) was 1 to 10 µM.

Source of the values: patent US20250051346A1 (priority 2021, published 2025).
